In PubChem BioAssay AID328 (DTP/NCI, 2004):
Where “and” joins values, the source holds several entries; their conditions need not be identical. Equal values may be shown once. Toxic doses and inconclusive results are not listed.

Test system: BDF1 mice, P388 leukemia ip, median survival T/C
Assay: NCI In Vivo Anticancer Drug Screen. Data for tumor model P388 Leukemia (intraperitoneal) in B6D2F1 (BDF1) mice
Settings: endpoint: median survival time, higher = longer survival
In short: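 T/C = treated-group survival ÷ vehicle-control survival; tumour transplanted into mice before dosing.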

[1] = dose: 100.0 mg/kg/injection, schedule: Q04DX003 (ip), vehicle: saline with Tween-80
[2] = dose: 200.0 mg/kg/injection, schedule: Q04DX003 (ip), vehicle: saline with Tween-80
[3] = dose: 400.0 mg/kg/injection, schedule: Q04DX003 (ip), vehicle: saline with Tween-80
[4] = dose: 3.12 mg/kg/injection, schedule: Q01DX009 (ip), vehicle: saline with Tween-80
[5] = dose: 6.25 mg/kg/injection, schedule: Q01DX009 (ip), vehicle: saline with Tween-80
[6] = dose: 12.5 mg/kg/injection, schedule: Q01DX009 (ip), vehicle: saline with Tween-80
[7] = dose: 25.0 mg/kg/injection, schedule: Q01DX009 (ip), vehicle: saline with Tween-80
[8] = dose: 50.0 mg/kg/injection, schedule: Q01DX009 (ip), vehicle: saline with Tween-80
[9] = dose: 25.0 mg/kg/injection, schedule: Q01DX009 (ip), vehicle: saline
[10] = dose: 50.0 mg/kg/injection, schedule: Q01DX009 (ip), vehicle: saline
[11] = dose: 12.5 mg/kg/injection, schedule: Q04DX003 (ip), vehicle: saline with Tween-80
[12] = dose: 25.0 mg/kg/injection, schedule: Q04DX003 (ip), vehicle: saline with Tween-80
[13] = dose: 50.0 mg/kg/injection, schedule: Q04DX003 (ip), vehicle: saline with Tween-80
[14] = dose: 100.0 mg/kg/injection, schedule: Q04DX003 (ip), vehicle: saline
[15] = dose: 200.0 mg/kg/injection, schedule: Q04DX003 (ip), vehicle: saline
[16] = dose: 100.0 mg/kg/injection, schedule: Q01DX009 (ip), vehicle: saline with Tween-80
[17] = dose: 200.0 mg/kg/injection, schedule: Q01DX009 (ip), vehicle: saline with Tween-80
[18] = dose: 400.0 mg/kg/injection, schedule: Q01DX009 (ip), vehicle: saline with Tween-80
[19] = dose: 100.0 mg/kg/injection, schedule: Q04DX003 (ip), vehicle: Klucel (hydroxypropylcellulose) (HPC)
[20] = dose: 200.0 mg/kg/injection, schedule: Q04DX003 (ip), vehicle: Klucel (hydroxypropylcellulose) (HPC)
[21] = dose: 400.0 mg/kg/injection, schedule: Q04DX003 (ip), vehicle: Klucel (hydroxypropylcellulose) (HPC)
[22] = dose: 50.0 mg/kg/injection, schedule: Q01DX009 (ip), vehicle: Klucel (hydroxypropylcellulose) (HPC)
[23] = dose: 100.0 mg/kg/injection, schedule: Q01DX009 (ip), vehicle: Klucel (hydroxypropylcellulose) (HPC)
[24] = dose: 50.0 mg/kg/injection, schedule: Q04DX003 (ip), vehicle: Klucel (hydroxypropylcellulose) (HPC)

## O=Cc1[nH]c(=S)[nH]c(=O)c1Cc1ccc([N+](=O)[O-])cc1
[1]
  T/C: 100 % of control
[2]
  T/C: 95 % of control
[3]
  T/C: 112 % of control

## COc1cccc(/C=N/NC(=O)C2CCN(C(=S)NC3CC4C=CC3C4)CC2)c1O (stereo not given)
dose: 1.56 mg/kg/injection, schedule: Q01DX009 (ip), vehicle: saline with Tween-80
  T/C: 90 % of control
[4]
  T/C: 89 % of control
[5]
  T/C: 87 % of control and 92 % of control
[6]
  T/C: 89 % of control
[7]
  T/C: 92 % of control
[8]
  T/C: 101 % of control

## C=C1C(=O)OC2CC3(C)CC(O)C(OC(C)=O)C(=C)C3CC12 (stereo not given)
[9]
  T/C: 104 % of control
[10]
  T/C: 101 % of control

## CN(C)c1ccc(/C=C/c2ccncc2)cc1
dose: 3.13 mg/kg/injection, schedule: Q01DX009 (ip), vehicle: saline with Tween-80
  T/C: 115 % of control

## Cc1cccc(C(=O)C=C(C(F)(F)F)C(F)(F)F)c1
[5]
  T/C: 110 % of control
[6]
  T/C: 155 % of control
[11]
  T/C: 119 % of control
dose: 12.5 mg/kg/injection, schedule: Q04DX003 (sc), vehicle: saline with Tween-80
  T/C: 105 % of control
[7]
  T/C: 150 % of control
[12]
  T/C: 104 % of control
dose: 25.0 mg/kg/injection, schedule: Q04DX003 (sc), vehicle: saline with Tween-80
  T/C: 115 % of control
[13]
  T/C: 119 % of control
dose: 50.0 mg/kg/injection, schedule: Q04DX003 (sc), vehicle: saline with Tween-80
  T/C: 120 % of control

## C[N+]1(C2CCC3CCC2C3O)CCCCC1 (stereo not given)
[14]
  T/C: 90 % of control
[15]
  T/C: 122 % of control

## COC1=CC(=O)c2c(O)cc(OC)cc2C1=O
dose: 1.25 mg/kg/injection, schedule: Q01DX009 (ip), vehicle: saline with Tween-80
  T/C: 120 % of control
dose: 2.5 mg/kg/injection, schedule: Q01DX009 (ip), vehicle: saline with Tween-80
  T/C: 95 % of control

## Oc1ccc2ccccc2c1N=Nc1ccc(Cl)cc1
[16]
  T/C: 104 % of control
[17]
  T/C: 95 % of control
[18]
  T/C: 95 % of control

## CCOCc1cccc2ccccc12
[1]
  T/C: 109 % of control
[2]
  T/C: 100 % of control
[3]
  T/C: 118 % of control

## Cc1ccc(C(SCC(N)C(=O)O)(c2ccc(C)cc2)c2ccc(C)cc2)cc1 (stereo not given)
dose: 65.0 mg/kg/injection, schedule: Q04DX003 (ip), vehicle: Klucel (hydroxypropylcellulose) (HPC)
  T/C: 159 % of control
[19]
  T/C: 175 % of control
[20]
  T/C: 185 % of control
dose: 264.0 mg/kg/injection, schedule: Q04DX003 (ip), vehicle: Klucel (hydroxypropylcellulose) (HPC)
  T/C: 230 % of control and 150 % of control
[21]
  T/C: 177 % of control and 190 % of control (2×)

## CS(=O)(=O)NC(=O)NC(=S)c1ccccc1
dose: 100.0 mg/kg/injection, schedule: Q01DX001 (ip), vehicle: saline with Tween-80
  T/C: 100 % of control
dose: 200.0 mg/kg/injection, schedule: Q01DX001 (ip), vehicle: saline with Tween-80
  T/C: 100 % of control
dose: 400.0 mg/kg/injection, schedule: Q01DX001 (ip), vehicle: saline with Tween-80
  T/C: 108 % of control

## Clc1ccc(NC2=NCCN=C(Nc3ccc(Cl)cc3)SS2)cc1
[22]
  T/C: 91 % of control
[23]
  T/C: 91 % of control

## Cc1nn(C)c(N)c1C#N
dose: 12.5 mg/kg/injection, schedule: Q01DX009 (ip), vehicle: saline
  T/C: 87 % of control
[9]
  T/C: 94 % of control
dose: 25.0 mg/kg/injection, schedule: Q04DX003 (ip), vehicle: saline
  T/C: 103 % of control
[10]
  T/C: 87 % of control
dose: 50.0 mg/kg/injection, schedule: Q04DX003 (ip), vehicle: saline
  T/C: 97 % of control
dose: 100.0 mg/kg/injection, schedule: Q01DX009 (ip), vehicle: saline
  T/C: 101 % of control
[14]
  T/C: 92 % of control
dose: 200.0 mg/kg/injection, schedule: Q01DX009 (ip), vehicle: saline
  T/C: 100 % of control
[15]
  T/C: 97 % of control
dose: 400.0 mg/kg/injection, schedule: Q01DX009 (ip), vehicle: saline
  T/C: 92 % of control
dose: 400.0 mg/kg/injection, schedule: Q04DX003 (ip), vehicle: saline
  T/C: 97 % of control

## OC1(C#CC2(O)CCCCC2)CCCCC1
[22]
  T/C: 96 % of control
[24]
  T/C: 109 % of control
[23]
  T/C: 100 % of control
[19]
  T/C: 109 % of control
dose: 200.0 mg/kg/injection, schedule: Q01DX009 (ip), vehicle: Klucel (hydroxypropylcellulose) (HPC)
  T/C: 96 % of control
[20]
  T/C: 100 % of control

## COc1cc2c3cc1Oc1c(OC)c(OC)cc4c1C(Cc1ccc(OC(C)=O)c(c1)Oc1ccc(cc1)CC3N(C)CC2)N(C)CC4 (stereo not given)
[11]
  T/C: 100 % of control
[12]
  T/C: 109 % of control
[13]
  T/C: 100 % of control
[2]
  T/C: 95 % of control
[3]
  T/C: 90 % of control

## c1cc[c]([Sn]([S][Sn]([c]2ccccc2)([c]2ccccc2)[c]2ccccc2)([c]2ccccc2)[c]2ccccc2)cc1
[8]
  T/C: 98 % of control
[16]
  T/C: 93 % of control
[17]
  T/C: 114 % of control
[18]
  T/C: 86 % of control

## COc1cc([C@@H]2c3cc4c(cc3[C@H](SC(=N)N)[C@H]3COC(=O)[C@H]23)OCO4)cc(OC)c1OC
dose: 1.4 mg/kg/injection, schedule: Q01DX010 (ip), vehicle: carboxymethylcellulose (CMC)
  T/C: 105 % of control
dose: 2.8 mg/kg/injection, schedule: Q01DX010 (ip), vehicle: carboxymethylcellulose (CMC)
  T/C: 100 % of control
dose: 5.6 mg/kg/injection, schedule: Q01DX010 (ip), vehicle: carboxymethylcellulose (CMC)
  T/C: 110 % of control
dose: 18.0 mg/kg/injection, schedule: Q01DX009 (ip), vehicle: Klucel (hydroxypropylcellulose) (HPC)
  T/C: 152 % of control
dose: 27.0 mg/kg/injection, schedule: Q01DX009 (ip), vehicle: Klucel (hydroxypropylcellulose) (HPC)
  T/C: 171 % of control

## C[N+](C)(C)CCC[n+]1ccc(CCn2ccc3ccccc32)cc1
dose: 25.0 mg/kg/injection, schedule: Q01DX001 (ip), vehicle: saline
  T/C: 100 % of control
dose: 50.0 mg/kg/injection, schedule: Q01DX001 (ip), vehicle: saline
  T/C: 105 % of control
dose: 100.0 mg/kg/injection, schedule: Q01DX001 (ip), vehicle: saline
  T/C: 105 % of control

## O=C1c2ccccc2-c2cc3ccccc3cc21
dose: 75.0 mg/kg/injection, schedule: Q04DX003 (ip), vehicle: saline sonified
  T/C: 100 % of control
dose: 150.0 mg/kg/injection, schedule: Q04DX003 (ip), vehicle: saline sonified
  T/C: 110 % of control
dose: 300.0 mg/kg/injection, schedule: Q04DX003 (ip), vehicle: saline sonified
  T/C: 110 % of control

## C=CCNC(=S)Nc1cc(Cl)ccc1OC
[19]
  T/C: 109 % of control
[20]
  T/C: 95 % of control
[21]
  T/C: 95 % of control

## BrCCCC[P+](c1ccccc1)(c1ccccc1)c1ccccc1
dose: 6.25 mg/kg/injection, schedule: Q01DX010 (ip), vehicle: saline
  T/C: 113 % of control
dose: 12.5 mg/kg/injection, schedule: Q01DX010 (ip), vehicle: saline
  T/C: 118 % of control

## C[C@]12C=CC(=O)C=C1CC[C@H]1[C@@H]3CCC(=O)O[C@@]3(C)CC(=O)[C@@]12F
[16]
  T/C: 100 % of control
[17]
  T/C: 100 % of control
[18]
  T/C: 100 % of control

## CC(C)C1C(C)N1C(C)C (stereo not given)
dose: 25.0 mg/kg/injection, schedule: Q01DX009 (ip), vehicle: Klucel (hydroxypropylcellulose) (HPC)
  T/C: 100 % of control
dose: 25.0 mg/kg/injection, schedule: Q04DX003 (ip), vehicle: Klucel (hydroxypropylcellulose) (HPC)
  T/C: 100 % of control
[22]
  T/C: 100 % of control
[24]
  T/C: 100 % of control
[23]
  T/C: 95 % of control
[19]
  T/C: 104 % of control

## O=c1c2ccccc2nc(-c2ccccc2)n1-c1nnc(C(F)(F)F)s1
[4]
  T/C: 101 % of control
[5]
  T/C: 105 % of control
[6]
  T/C: 91 % of control
